In patent US20210228552A1, “METHOD FOR ADJUSTING RAS UBIQUITINATION” (Xiamen University, priority 2018, published 2021):
“Also recorded” adds a separate entry of the source.

Tests used:
K-Ras-G12V [1] = target: T1, K-Ras-G12V (Homo sapiens, UniProt P01116, G12V); test: Exogenous Flag-K-Ras-G12V protein level in transfected HEK293T cells (Western blotting); type: cell-based; settings: HEK293T cells transfected with Flag-K-Ras-G12V, 2.5-20 μM, 24 h, FIG. 3(b)
Protocol: Compounds that can Decrease the Level of Exogenous K-Ras-G12V were Screened in HEK293T Cells
1) Cell plating: HEK293T cells in logarithmic growth phase were inoculated into 12-well plates and cultured in 37° C. and 5% CO2 incubator. The best inoculation amount was at a cell density of 70%-90% when transfected the next day. […]
(§1) 3) Detection of K-Ras protein level: 24 hours after administration, liquid in the well was discarded, the cells were routinely collected, the cells were rinsed twice with 1×PBS, and the cell lysate was added to extract the total cell protein. The protein concentration was determined by BCA method. […]
(§2) 4) Calculation of single point K-Ras protein degradation rate: quantitative and calibration analysis on Flag-K-Ras and β-actin were performed by Image-Lab software, and then the intracellular Flag-K-Ras degradation rate was calculated according to the following formula: single point Flag-K-Ras protein degradation rate (%)=(control group-administration group)/control group×100%. […]

MCF-7 cells = test: Colony forming ability on soft agar, MCF-7 cells; type: cell-based, Human; settings: 10-30 days, FIG. 4(a)
Protocol: (§3) i. 1% agar was prepared and sterilized under high pressure. 1% Agar was heated and melted in a boiling water bath before use, then cooled in a 40° C. water bath (standing for at least 30 minutes and cooling the agar to 40° C.); and 2×DMEM/FBS was placed in a warm bath at the same time;
(§4) ii. 0.5% bottom agar was prepared by mixing 1% agar and 2×DMEM/FBS in a sterile tube at a volume ratio of 1:1. The mixture was quickly added to a 6-well plate, 1.5 mL per well, gently shake it well, and it was stood at room temperature to be solidified (after solidification, it can be stored at 4° C. for 1 week. Leave at room temperature for at least 30 minutes before use to restore it to room temperature).
(§5) i. A final concentration of 0.3% agar+1×DMEM/FBS mixture was prepared in sterile tubes by using 1% agar at a temperature of 40° C., 2×DMEM/FBS and sterile water. The prepared mixed solution was put into a 40° C. water bath kettle for later use;
(§6) ii. The cells were digested by trypsin and counted, and the cell density was adjusted according to the needs of the experiment; […]

SW620 cells = test: Colony forming ability on soft agar, SW620 cells; type: cell-based, Human; settings: 10-30 days, FIG. 4(b)
Protocol: as §3, §4, §5, §6

HT-29 cells = test: Colony forming ability on soft agar, HT-29 cells; type: cell-based, Human; settings: HT-29 cells (Raf kinase mutation), 10-30 days, FIG. 4(c)
Protocol: as §3, §4, §5, §6

K-Ras-G12V [2] = target: T1, K-Ras-G12V; test: Endogenous K-Ras-G12V protein level in SW620 cells (Western blotting); type: cell-based; parameters: endogenous in cells; host or cells: SW620; settings: 2.5-20 μM, 24 h, FIG. 3(a)
Protocol: Compounds that can Decrease the Level of Endogenous K-Ras-G12V were Screened in SW620 Cells
1) Cell plating: SW620 cells in logarithmic growth phase were inoculated into 24-well plates with 2×10^4/well and cultured in 37° C. and 5% CO2 incubator.
2) Cell administration: after 24 hours of culture, various drug stock solutions were diluted […]; the stock solution from the 24-well plate was discarded, then the prepared drug solution was added, with taking the DMSO group as a blank control; after the drug was added, it was transferred to the CO2 incubator at 37° C. to continue the culture.
as §1
as §2, with “K-Ras” for “Flag-K-Ras”

O=C(NCc1ccccc1C(F)(F)F)c1c[nH]c(-c2n[nH]c3ncccc23)c1 [ZT-10-158-01]
level of exogenous K-Ras-G12V protein (K-Ras-G12V [1]): effective in decreasing K-Ras protein levels in cells, and in a positive concentration-dependent correlation; also recorded: effective in decreasing the level of exogenous K-Ras-G12V protein in HEK293T cells with a positive concentration-dependent inhibitory effect | colony forming ability on agar (MCF-7 cells): can selectively inhibit the colony formation; also recorded: effective in inhibiting colony forming ability | colony forming ability on agar (SW620 cells): can selectively inhibit the colony formation; also recorded: effective in inhibiting colony forming ability | colony forming ability on agar (HT-29 cells): no significant inhibitory effect; also recorded: did not inhibit the colony forming ability | level of endogenous K-Ras-G12V protein (K-Ras-G12V [2]): effective in decreasing K-Ras protein levels in cells, and in a positive concentration-dependent correlation; also recorded: effective in decreasing the level of endogenous K-Ras-G12V protein in SW620 cells with a positive concentration-dependent inhibitory effect
